# Assay results from article PMC8624133, “10th Trends in Medical Mycology Held on 8 to 11 October 2021, Aberdeen, Scotland, Organized by the European Confederation of Medical Mycology (ECMM)” (Journal of Fungi, 2021).
# Like-named read-outs stand apart in the source and are kept apart here.
# Legend:
# [1] = test system: C. auris clinical strains; test: organism not typed; format: cell-based, Candida auris; details: range, 78 strains from patients with COVID-19
# [2] = test system: Candida spp. blood isolates; details: 2009–2018
# Experimental: Ward of hospitalization at the time of the diagnosis, species identification and in vitro antifungal susceptibility profile (where available) were recorded. Identification of Candida isolates and susceptibility testing were performed as per hospital protocol. Annual incidence rates/100,000 inhabitants were calculated. Chi-square test for trend was used for evaluation of changes in species distribution.
# C. glabrata [3] = test: Candidemia Netherlands, MIC distributions against EUCAST ECOFF; format: cell-based, Candida glabrata
# [4] = test system: invasive C. glabrata strains; test: YeastOne Sensititre colorimetric broth microdilution; format: cell-based, Candida glabrata; details: Nakaseomyces glabratus
# Experimental: Material and Method: Thirty-six clinical isolates of invasive C. glabrata strains were analyzed in this study. Minimum inhibitory concentrations (MICs) were determined using colorimetric broth microdilution (YeastOneSensititre, Trek diagnostics). Genomic DNA was isolated using Qiagen DNA extraction Kit. The FKS1 and FKS2 gene fragment were amplified and PCR products were purified prior to sequencing. Double-strand sequencing of PCR products was performed using Sanger sequencing methodology. Sequences were analyzed with MEGA-6 software to identify specific SNP combination against wild-type sequences of C. glabrata.
# [5] = test system: Exophiala phaeomuriformis; test: MIC, CLSI M27-A3; format: cell-based; details: read-out: MIC values
# Experimental: Materials & Methods: The aviation kerosone samples came from an aviation company in Porto Alegre, state of Rio Grande do Sul, Brazil. The fungi isolation was carried out using the modified ASTM D6974-09 Standard. In this procedure, 500 mL kerosene samples were filtered, in triplicate, under aseptic conditions, under vacuum, using a 0.22 μm membrane (Millipore). After filtering, the membranes were deposited in potato dextrose agar culture medium. The plates were incubated in an oven at 30 °C for seven days. After this period, the colonies were isolated in new culture media for purification of the isolates. Molecular identification was performed through the sequencing of ITS DNA regions. The profile of sensitivity to clinical antifungals was assessed following protocols M27-A3 of the Clinical and Laboratory Standards Institute (CLSI).
# F. verticillioides = test: Etest susceptibility; format: cell-based, Fusarium verticillioides
# C. glabrata [6] = format: cell-based, Candida glabrata
# [7] = test system: sessile cells of yeast mono and dual-species biofilms; test: MIC of catheter yeast isolates, mono and dual-species biofilms; format: cell-based; details: range
# C. krusei = format: cell-based, Candida krusei
# C. tropicalis = format: cell-based, Candida tropicalis
# C. parapsilosis = format: cell-based, Candida parapsilosis
# [8] = test system: Candida sp. and other yeast isolates, planktonic; test: MIC of catheter yeast isolates, planktonic form; format: cell-based; details: range; read-out: MIC
# Other species of Candida = format: cell-based, Candida spp.
# Candida auris isolates [9] = test: Disc diffusion, Oxoid discs; format: cell-based
# Aspergillus tubingensis = test: EUCAST susceptibility; format: cell-based
# Experimental: The fungus was identified as Aspergillus niger and liposomal amphotericine B was switched to anidulafungin pending susceptibility testing as the patient had pre-existing […] (eGFR CKD-EPI 40 mL/min/1.73 m²). […] Despite increasing the anidulafungin dosage to 200 mg daily and adequate voriconazol levels, serum galactomannan levels remained elevated (index 2.1 at discharge). […] Since no extracardiac sources were found and the patient did well clinically, they were discharched. Anidulafungin was switched to caspofungin to facilitate ongoing IV treatment in the outpatient setting. […] The patient died shortly after. Obduction was not performed.
# [10] = test system: environmental yeasts from a lagoon; test: organism not typed; format: cell-based
# C. albicans [11] = format: cell-based, Candida albicans
# C. albicans [12] = test: Candidemia Netherlands, MIC distributions against EUCAST ECOFF; format: cell-based, Candida albicans
# Candida auris isolates [13] = test: microbe, parasite or virus in culture; format: cell-based
compound,measurement,setting,value
Nc1[nH]c(=O)ncc1F [5-flucytosine],MIC,[1],0.06 to 0.12 µg/mL
same,Resistance,[2],No resistance
CC[C@H](C)C[C@H](C)CCCCCCCCC(=O)N[C@H]1C[C@@H](O)[C@@H](NCCN)NC(=O)[C@@H]2[C@@H](O)CCN2C(=O)[C@H]([C@H](O)CCN)NC(=O)[C@H]([C@H](O)[C@@H](O)c2ccc(O)cc2)NC(=O)[C@@H]2C[C@@H](O)CN2C(=O)[C@H]([C@@H](C)O)NC1=O [caspofungin],isolates within the wildtype distribution range,C. glabrata [3],87.1%
same,MIC,"[4]; 36 clinical isolates, read-out: median (Min–Max) MIC",0.06 µg/mL
same,MIC,[4]; isolate with FKS1 D632H,0.25 µg/mL
same,MIC,[4]; isolate with FKS2 I661T,0.12 µg/mL
same,MIC,[5],> 8 µg/mL
same,"minimum inhibitory concentration (MIC), in words",F. verticillioides,high values
same,"R (resistant) isolates, n (%)",C. glabrata [6],3 (5.5%)
same,"S (sensitive) isolates, n (%)",C. glabrata [6],44 (80%)
same,MIC,[1],0.06 to 1 µg/mL
same,MIC,[7],0.5 to 16 µg/mL
same,"I (intermediate) isolates, n (%)",C. krusei,1 (33.3%)
same,"S (sensitive) isolates, n (%)",C. krusei,2 (66.7%)
same,"I (intermediate) isolates, n (%)",C. tropicalis,0 (0%)
same,"R (resistant) isolates, n (%)",C. tropicalis,0 (0%)
same,"S (sensitive) isolates, n (%)",C. tropicalis,44 (100%)
same,"I (intermediate) isolates, n (%)",C. parapsilosis,0 (0%)
same,"R (resistant) isolates, n (%)",C. parapsilosis,0 (0%)
same,"S (sensitive) isolates, n (%)",C. parapsilosis,132 (100%)
same,MIC,[8],0.06 to 1 µg/mL
same,"I (intermediate) isolates, n (%)",Other species of Candida,0 (0%)
same,"R (resistant) isolates, n (%)",Other species of Candida,0 (0%)
same,"S (sensitive) isolates, n (%)",Other species of Candida,18 (100%)
same,categorised as resistant on ZD,Candida auris isolates [9],none
same,median zone diameter (ZD),"Candida auris isolates [9]; 25 µg FLU and 5 µg CAS discs, […]",23 mm
same,MIC,Aspergillus tubingensis,60 µg/mL
same,isolates classified as resistant-like,"[10]; number of 71 yeasts, MIC at or above Candida breakpoint",48
same,MIC,"[10]; range, read-out: MIC of resistant-like isolates",1 to 128 µg/mL
same,"I (intermediate) isolates, n (%)",C. albicans [11],0 (0%)
same,"R (resistant) isolates, n (%)",C. albicans [11],0 (0%)
same,"S (sensitive) isolates, n (%)",C. albicans [11],138 (100)
same,isolates within the wildtype distribution range,C. albicans [12],98.9%
same,categorised as resistant on MIC,Candida auris isolates [13]; CDC guidelines,13.2%
same,MIC,"Candida auris isolates [13]; Candidozyma auris, […], IQR given, read-out: median MIC",0.12 µg/mL
